# Laboratory results taken from patent US20240139211A1, “METHODS AND COMPOSITIONS FOR TREATING AMYOTROPHIC LATERAL SCLEROSIS” (Amylyx Pharmaceuticals, Inc., priority 2022, published 2024).
# Assays:
# OAT1 [1] = target: T1, OAT1 (Homo sapiens, UniProt Q4U2R8); assay: Substrate of OAT1, uptake in HEK293 cells
# T1 sequence (Q4U2R8 1-563): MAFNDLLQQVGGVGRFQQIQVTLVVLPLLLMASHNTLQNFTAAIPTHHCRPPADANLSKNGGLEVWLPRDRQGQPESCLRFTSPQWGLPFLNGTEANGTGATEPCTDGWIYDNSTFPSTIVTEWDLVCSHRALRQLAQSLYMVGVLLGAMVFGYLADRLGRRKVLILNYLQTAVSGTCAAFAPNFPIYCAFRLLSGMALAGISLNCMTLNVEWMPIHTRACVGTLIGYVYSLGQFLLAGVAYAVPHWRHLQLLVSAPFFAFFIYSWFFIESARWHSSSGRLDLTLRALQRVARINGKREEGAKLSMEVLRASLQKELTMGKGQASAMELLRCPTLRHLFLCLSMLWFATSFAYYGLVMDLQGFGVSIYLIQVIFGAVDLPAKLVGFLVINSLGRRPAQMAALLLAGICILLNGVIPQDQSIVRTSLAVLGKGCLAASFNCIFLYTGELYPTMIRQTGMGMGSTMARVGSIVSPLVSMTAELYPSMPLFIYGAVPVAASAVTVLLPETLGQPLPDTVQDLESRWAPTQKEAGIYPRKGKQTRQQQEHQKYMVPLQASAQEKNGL
# Source text: (§1) Vector-transfected HEK cells were used as a control.
# OCT1 [2] = target: T2, OCT1 (Homo sapiens, UniProt O15245); assay: Substrate of OCT1, uptake in HEK293 cells
# T2 sequence (O15245 1-554): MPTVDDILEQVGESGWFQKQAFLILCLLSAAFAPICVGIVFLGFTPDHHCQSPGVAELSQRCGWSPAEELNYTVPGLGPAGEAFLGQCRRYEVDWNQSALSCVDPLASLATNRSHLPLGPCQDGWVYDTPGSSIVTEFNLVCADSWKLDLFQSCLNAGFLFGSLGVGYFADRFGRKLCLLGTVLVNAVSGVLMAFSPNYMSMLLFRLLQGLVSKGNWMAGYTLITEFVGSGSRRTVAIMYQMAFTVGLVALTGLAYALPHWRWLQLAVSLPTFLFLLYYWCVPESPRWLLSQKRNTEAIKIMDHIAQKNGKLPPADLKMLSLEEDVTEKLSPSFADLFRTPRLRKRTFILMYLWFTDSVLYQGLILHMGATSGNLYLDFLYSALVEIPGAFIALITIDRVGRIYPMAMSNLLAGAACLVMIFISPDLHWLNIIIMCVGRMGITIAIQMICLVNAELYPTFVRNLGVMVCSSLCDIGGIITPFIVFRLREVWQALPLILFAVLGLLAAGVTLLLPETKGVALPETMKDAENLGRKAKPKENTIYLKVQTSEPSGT
# Source text: as §1
# OATP1B1 = OATP1B1 (Homo sapiens, UniProt Q9Y6L6); assay: Substrate of OATP1B1, uptake in HEK293 cells
# Sequence of OATP1B1 (Q9Y6L6 whole entry): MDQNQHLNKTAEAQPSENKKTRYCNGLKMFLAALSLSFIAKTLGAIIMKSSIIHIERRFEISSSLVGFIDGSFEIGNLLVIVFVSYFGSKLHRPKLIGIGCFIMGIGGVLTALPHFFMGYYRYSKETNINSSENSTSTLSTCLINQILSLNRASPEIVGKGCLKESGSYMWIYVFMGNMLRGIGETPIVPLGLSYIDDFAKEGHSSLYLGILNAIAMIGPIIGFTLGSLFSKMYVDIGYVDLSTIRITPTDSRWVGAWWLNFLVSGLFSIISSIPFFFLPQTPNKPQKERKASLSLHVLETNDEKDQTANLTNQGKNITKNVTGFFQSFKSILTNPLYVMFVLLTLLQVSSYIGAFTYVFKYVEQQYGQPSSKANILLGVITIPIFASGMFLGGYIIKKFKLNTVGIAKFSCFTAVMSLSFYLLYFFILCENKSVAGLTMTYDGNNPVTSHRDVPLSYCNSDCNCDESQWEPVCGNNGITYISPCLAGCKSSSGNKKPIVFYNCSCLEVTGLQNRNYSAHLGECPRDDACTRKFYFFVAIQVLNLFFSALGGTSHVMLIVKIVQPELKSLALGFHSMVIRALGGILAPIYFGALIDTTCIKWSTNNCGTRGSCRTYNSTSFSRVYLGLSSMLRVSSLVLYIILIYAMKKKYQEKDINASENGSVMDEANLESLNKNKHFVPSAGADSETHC
# Source text: as §1
# in vitro = settings: human, Caco-2
# BSEP = BSEP (Homo sapiens, UniProt O95342); assay: Inhibitor of BSEP
# Sequence of BSEP (O95342 whole entry): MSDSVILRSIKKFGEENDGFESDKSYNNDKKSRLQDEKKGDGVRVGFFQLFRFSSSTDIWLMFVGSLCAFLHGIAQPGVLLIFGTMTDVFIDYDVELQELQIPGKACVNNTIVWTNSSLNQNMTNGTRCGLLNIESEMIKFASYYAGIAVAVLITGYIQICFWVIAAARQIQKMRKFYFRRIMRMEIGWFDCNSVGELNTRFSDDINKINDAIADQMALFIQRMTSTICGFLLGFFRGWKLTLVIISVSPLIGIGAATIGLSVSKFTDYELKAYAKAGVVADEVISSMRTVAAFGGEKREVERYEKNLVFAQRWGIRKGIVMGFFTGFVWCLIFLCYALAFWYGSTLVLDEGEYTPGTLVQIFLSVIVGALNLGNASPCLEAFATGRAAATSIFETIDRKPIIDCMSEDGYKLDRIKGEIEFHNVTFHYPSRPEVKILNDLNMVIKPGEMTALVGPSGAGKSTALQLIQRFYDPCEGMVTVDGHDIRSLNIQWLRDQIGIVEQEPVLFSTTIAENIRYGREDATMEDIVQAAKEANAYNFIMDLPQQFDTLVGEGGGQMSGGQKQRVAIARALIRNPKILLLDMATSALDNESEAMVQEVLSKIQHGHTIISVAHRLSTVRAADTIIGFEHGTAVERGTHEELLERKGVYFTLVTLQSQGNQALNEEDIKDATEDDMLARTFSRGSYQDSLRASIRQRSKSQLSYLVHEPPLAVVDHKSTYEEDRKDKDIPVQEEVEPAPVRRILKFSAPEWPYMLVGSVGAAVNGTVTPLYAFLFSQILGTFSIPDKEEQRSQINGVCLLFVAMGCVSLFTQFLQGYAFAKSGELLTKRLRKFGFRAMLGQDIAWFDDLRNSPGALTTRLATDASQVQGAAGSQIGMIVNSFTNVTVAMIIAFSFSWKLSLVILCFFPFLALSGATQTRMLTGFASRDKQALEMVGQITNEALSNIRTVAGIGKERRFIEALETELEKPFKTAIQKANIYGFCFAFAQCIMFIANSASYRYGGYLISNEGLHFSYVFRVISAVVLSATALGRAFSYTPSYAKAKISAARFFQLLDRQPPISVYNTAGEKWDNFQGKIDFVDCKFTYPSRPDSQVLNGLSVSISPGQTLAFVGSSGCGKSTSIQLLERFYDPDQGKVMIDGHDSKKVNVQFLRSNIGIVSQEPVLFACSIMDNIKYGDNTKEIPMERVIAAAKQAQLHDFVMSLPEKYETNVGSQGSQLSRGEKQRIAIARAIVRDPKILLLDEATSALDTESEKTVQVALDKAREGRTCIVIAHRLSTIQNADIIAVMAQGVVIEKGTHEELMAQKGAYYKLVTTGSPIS
# OAT1 [3] = target: T1, OAT1; assay: Inhibitor of OAT1, probe substrate uptake
# OAT3 = target: T3, OAT3 (Homo sapiens, UniProt Q8TCC7); assay: Inhibitor of OAT3, probe substrate uptake; settings: two concentrations per test article
# T3 sequence (Q8TCC7 1-542): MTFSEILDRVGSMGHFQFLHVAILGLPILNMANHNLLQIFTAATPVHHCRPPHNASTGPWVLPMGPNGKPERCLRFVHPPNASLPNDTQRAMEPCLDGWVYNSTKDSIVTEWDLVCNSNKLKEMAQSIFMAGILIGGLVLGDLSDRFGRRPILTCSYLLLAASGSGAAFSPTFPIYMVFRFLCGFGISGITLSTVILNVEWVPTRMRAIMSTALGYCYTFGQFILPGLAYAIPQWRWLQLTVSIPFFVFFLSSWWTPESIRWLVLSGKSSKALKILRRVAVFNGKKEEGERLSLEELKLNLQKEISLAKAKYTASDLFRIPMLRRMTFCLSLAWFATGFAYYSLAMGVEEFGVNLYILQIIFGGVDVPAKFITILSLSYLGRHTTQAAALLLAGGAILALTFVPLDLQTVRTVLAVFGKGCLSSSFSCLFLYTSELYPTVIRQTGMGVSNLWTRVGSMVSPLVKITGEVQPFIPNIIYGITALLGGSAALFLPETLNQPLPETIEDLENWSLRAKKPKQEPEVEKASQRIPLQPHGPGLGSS
# OCT1 [4] = target: T2, OCT1; assay: Inhibitor of OCT1, probe substrate uptake; settings: two concentrations per test article
# MATE2K = MATE2K (Homo sapiens, UniProt Q86VL8); assay: Inhibitor of MATE2-K, probe substrate uptake; settings: two concentrations per test article
# Sequence of MATE2K (Q86VL8 1-566 isoform Q86VL8-3): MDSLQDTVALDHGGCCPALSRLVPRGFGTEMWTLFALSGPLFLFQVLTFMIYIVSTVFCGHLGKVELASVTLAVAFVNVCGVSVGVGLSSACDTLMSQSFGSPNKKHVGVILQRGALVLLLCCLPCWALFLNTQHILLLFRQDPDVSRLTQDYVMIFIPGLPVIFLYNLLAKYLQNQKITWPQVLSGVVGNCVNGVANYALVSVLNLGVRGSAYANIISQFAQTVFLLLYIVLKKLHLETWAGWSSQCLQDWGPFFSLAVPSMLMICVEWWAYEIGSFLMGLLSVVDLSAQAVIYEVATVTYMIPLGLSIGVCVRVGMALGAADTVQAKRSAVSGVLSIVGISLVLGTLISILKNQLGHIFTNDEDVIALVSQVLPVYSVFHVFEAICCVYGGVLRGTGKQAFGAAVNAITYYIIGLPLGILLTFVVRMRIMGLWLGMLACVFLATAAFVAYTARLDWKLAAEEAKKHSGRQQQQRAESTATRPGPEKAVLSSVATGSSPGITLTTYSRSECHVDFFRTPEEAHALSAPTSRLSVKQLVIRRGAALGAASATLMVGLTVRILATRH
# P-gp = P-gp (Homo sapiens, UniProt P08183); assay: Substrate of P-gp (Caco-2 cells, selective inhibitors)
# Sequence of P-gp (P08183 whole entry): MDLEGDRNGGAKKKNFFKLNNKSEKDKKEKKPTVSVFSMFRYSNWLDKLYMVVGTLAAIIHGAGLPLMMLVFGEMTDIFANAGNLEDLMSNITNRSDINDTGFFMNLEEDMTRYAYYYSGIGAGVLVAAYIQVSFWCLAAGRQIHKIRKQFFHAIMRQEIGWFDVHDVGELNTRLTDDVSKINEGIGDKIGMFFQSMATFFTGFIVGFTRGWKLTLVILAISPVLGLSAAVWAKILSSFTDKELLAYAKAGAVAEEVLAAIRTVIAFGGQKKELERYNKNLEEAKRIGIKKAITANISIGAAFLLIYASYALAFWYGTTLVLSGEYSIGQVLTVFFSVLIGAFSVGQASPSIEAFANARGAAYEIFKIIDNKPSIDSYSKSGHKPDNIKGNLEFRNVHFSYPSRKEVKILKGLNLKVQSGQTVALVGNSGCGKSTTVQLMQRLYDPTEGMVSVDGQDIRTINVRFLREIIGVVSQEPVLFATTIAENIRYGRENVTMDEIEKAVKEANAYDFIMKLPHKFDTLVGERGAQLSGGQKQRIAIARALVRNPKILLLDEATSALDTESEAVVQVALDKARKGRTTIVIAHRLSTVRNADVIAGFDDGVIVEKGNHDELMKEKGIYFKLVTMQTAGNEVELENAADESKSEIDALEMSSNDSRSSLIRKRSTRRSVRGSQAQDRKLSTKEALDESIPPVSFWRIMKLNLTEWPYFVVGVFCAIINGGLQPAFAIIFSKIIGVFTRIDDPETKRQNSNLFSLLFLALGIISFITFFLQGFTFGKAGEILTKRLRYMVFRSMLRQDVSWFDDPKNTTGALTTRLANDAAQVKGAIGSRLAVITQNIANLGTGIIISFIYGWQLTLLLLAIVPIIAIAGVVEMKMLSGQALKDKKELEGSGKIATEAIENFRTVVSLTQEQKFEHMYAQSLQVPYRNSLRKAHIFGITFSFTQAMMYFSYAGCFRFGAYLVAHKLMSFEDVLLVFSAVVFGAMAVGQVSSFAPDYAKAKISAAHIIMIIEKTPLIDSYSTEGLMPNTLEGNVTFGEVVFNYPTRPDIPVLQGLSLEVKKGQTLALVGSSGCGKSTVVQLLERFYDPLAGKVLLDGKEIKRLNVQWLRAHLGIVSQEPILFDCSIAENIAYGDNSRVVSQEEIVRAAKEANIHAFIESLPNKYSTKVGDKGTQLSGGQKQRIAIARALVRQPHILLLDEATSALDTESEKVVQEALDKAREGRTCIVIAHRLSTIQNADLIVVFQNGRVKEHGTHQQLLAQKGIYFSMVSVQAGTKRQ
# CYP2B6 mRNA = assay: CYP2B6 gene expression induction in hepatocyte cultures; settings: Donor 1
# CYP3A4 mRNA = assay: CYP3A4 gene expression induction in hepatocyte cultures; settings: gene expression and enzyme activity, three donors
# human hepatocytes = assay: Cytotoxicity of six test articles in hepatocyte cultures (MTS); settings: Donor 1, 72±2 hours
# [5] = two concentrations per test article
structure (smiles),measurement,setting,value
"O=C(O)Cc1ccccc1 [Phenylacetic acid, phenylacetic acid]",Substrate of OAT1,OAT1 [1]; 1 and 10 μM,not a substrate
same,Substrate of OAT1,OAT1 [1]; test article 1 and 10 μM,No
same,Substrate of OCT1,OCT1 [2]; 1 and 10 μM,not a substrate
same,Substrate of OCT1,OCT1 [2]; test article 1 and 10 μM,No
same,Substrate of OATP1B1,OATP1B1; 1 and 10 μM,not a substrate
same,Substrate of OATP1B1,OATP1B1; test article 1 and 10 μM,No
same,Papp A→B,in vitro,≥ 26.1 ×10⁻⁶ cm/s
same,Papp B→A,in vitro,≥ 16.9 ×10⁻⁶ cm/s
same,recovery,in vitro,≥ 90.2%
same,potency estimated from few doses,BSEP; human,< 7.5 mM
same,Inhibition of BSEP,BSEP; [5],inhibited
same,Inhibitor of BSEP,BSEP; [5],Yes
same,"Uptake activity remaining, OAT1",OAT1 [3]; 750 μM,35.2%
same,potency estimated from few doses,"OAT1 [3]; read-out: Estimated IC50, OAT1, estimated from two concentrations",< 750 µM
same,Inhibition of OAT1,OAT1 [3]; [5],inhibited
same,Inhibitor of OAT1,OAT1 [3]; [5],Yes
same,Inhibition of OAT3,OAT3,did not inhibit
same,Inhibitor of OAT3,OAT3,No
same,Inhibition of OCT1,OCT1 [4],did not inhibit
same,Inhibitor of OCT1,OCT1 [4],No
same,Inhibition of MATE2-K,MATE2K,did not inhibit
same,Inhibitor of MATE2-K,MATE2K,No
same,Substrate of P-gp,"P-gp; Caco-2, 1 and 10 μM",not a substrate
same,Substrate of P-gp,"P-gp; test article 1 and 10 μM, Caco-2 cells",No
same,"Emax, CYP2B6 gene expression",CYP2B6 mRNA,11.1 fold
same,Inducer of CYP3A4 (conclusion),CYP3A4 mRNA,do not identify phenylacetic acid as an inducer of CYP3A4
same,Concentrations at which not hepatotoxic,human hepatocytes,≤ 500 µM
